Data on 13 compounds can be found in US11465981B2, “Heterocyclic compounds as immunomodulators” (Incyte Corporation, priority 2016, dated 2022).

PD-1/PD-L1 protein/protein interaction, sequence (Q9NZQ7 19-238): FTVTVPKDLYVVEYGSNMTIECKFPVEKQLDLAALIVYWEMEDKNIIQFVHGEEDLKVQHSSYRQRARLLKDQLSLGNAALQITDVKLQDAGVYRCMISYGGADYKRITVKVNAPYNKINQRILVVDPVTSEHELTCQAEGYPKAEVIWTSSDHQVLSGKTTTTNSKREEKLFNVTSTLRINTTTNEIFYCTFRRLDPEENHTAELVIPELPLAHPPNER

The target of this assay is PD-1/PD-L1 protein/protein interaction (Homo sapiens (Human), UniProt Q9NZQ7). Description: PD-1/PD-L1 Homogeneous Time-Resolved Fluorescence (HTRF) Binding Assay. The note with it: recombinant human PD-1 (Fc tag) 3 nM, human PD-L1 (His-tag) 10 nM, 25° C., PBS pH 7.4. How it is done:
Example A. PD-1/PD-L1 Homogeneous Time-Resolved Fluorescence (HTRF) Binding Assay
The assays were conducted in a standard black 384-well polystyrene plate with a final volume of 20 μL. Inhibitors were first serially diluted in DMSO and then added to the plate wells before the addition of other reaction components. The final concentration of DMSO in the assay was 1%. The assays were carried out at 25° C. in the PBS buffer (pH 7.4) with 0.05% Tween-20 and 0.1% BSA. Recombinant human PD-L1 protein (19-238) with a His-tag at the C-terminus was purchased from AcroBiosystems (PD1-H5229). Recombinant human PD-1 protein (25-167) with Fc tag at the C-terminus was also purchased from AcroBiosystems (PD1-H5257). PD-L1 and PD-1 proteins were diluted in the assay buffer and 10 μL was added to the plate well. Plates were centrifuged and proteins were preincubated with inhibitors for 40 minutes. The incubation was followed by the addition of 10 μL of HTRF detection buffer supplemented with Europium cryptate-labeled anti-human IgG (PerkinElmer-AD0212) specific for Fc and anti-His antibody conjugated to SureLight®-Allophycocyanin (APC, PerkinElmer-AD0059H). After centrifugation, the plate was incubated at 25° C. for 60 min. before reading on a PHERAstar FS plate reader (665 nm/620 nm ratio). Final concentrations in the assay were […], 10 nM PD-L1, 1 nM europium anti-human IgG and 20 nM anti-His-Allophycocyanin. IC50 determination was performed by fitting the curve of percent control activity versus the log of the inhibitor concentration using the GraphPad Prism 5.0 software.
In general terms: Time-resolved FRET reads energy transfer from a long-lived donor to a nearby acceptor.
A word on the IC50: it is the concentration needed to halve the response being measured. As for `Cc1c(NC(=O)c2ccc(CN3CCN(C)C3=O)cn2)cccc1-c1cccc(NC(=O)c2ccc(CNCCO)cn2)c1Cl` [Example 3, N-(2-chloro-2′-methyl-3′-(5-((3-methyl-2-oxoimidazolidin-1-yl)methyl)picolinamido)biphenyl-3-yl)-5-((2-hydroxyethylamino)methyl)picolinamide], the IC50 was at most 10 nM. Regarding `COc1ccnc(C(=O)Nc2cccc(-c3cccc(NC(=O)c4cc(C)c(CN5CCCC[C@H]5C(=O)O)cn4)c3Cl)c2C)c1` [Example 13, (S)-1-((6-((2-chloro-3′-(4-methoxypicolinamido)-2′-methyl-[1,1′-biphenyl]-3-yl)carbamoyl)-4-methylpyridin-3-yl)methyl)piperidine-2-carboxylic Acid], the IC50 was at most 10 nM. The figure for `Cc1c(NC(=O)c2ccc(CNCCO)cn2)cccc1-c1cccc(NC(=O)c2ccc(CNCCO)cn2)c1Cl` [Example 1, N,N′-(2-chloro-2′-methylbiphenyl-3,3′-diyl)bis(5-((2-hydroxyethylamino)methyl)picolinamide)] is at most 10 nM. Consider `Cc1c(NC(=O)c2ccc(CN3CCN(C)C3=O)cn2)cccc1-c1cccc(NC(=O)c2ccc(CN3CC[C@@H](O)C3)cn2)c1Cl` [Example 4, (R)—N-(2-chloro-2′-methyl-3′-(5-((3-methyl-2-oxoimidazolidin-1-yl)methyl)picolinamido)biphenyl-3-yl)-5-((3-hydroxypyrrolidin-1-yl)methyl)picolinamide], for which the IC50 is at most 10 nM. The figure for `Cc1c(NC(=O)c2ccc(CN3CCOC3=O)cn2)cccc1-c1cccc(NC(=O)c2ccc(CNCCO)cn2)c1Cl` [Example 5, N-(2-chloro-2′-methyl-3′-(5-((2-oxooxazolidin-3-yl)methyl)picolinamido)biphenyl-3-yl)-5-((2-hydroxyethylamino)methyl)picolinamide] is at most 10 nM; for `Cc1c(NC(=O)c2ccc(CN3CC[C@H](C(=O)O)C3)cn2)cccc1-c1cccc(NC(=O)c2ccc(CN3CC[C@@H](O)C3)cn2)c1Cl` [Example 8, (S)-1-((6-(2′-chloro-3′-(5-(((R)-3-hydroxypyrrolidin-1-yl)methyl)picolinamido)-2-methylbiphenyl-3-ylcarbamoyl)pyridin-3-yl)methyl)pyrrolidine-3-carboxylic Acid] it is at most 10 nM; for `Cc1c(NC(=O)c2ccc(CN3CC(C(=O)O)C3)cn2)cccc1-c1cccc(NC(=O)c2ccc(CN3CC[C@@H](O)C3)cn2)c1Cl` [Example 10, (R)-1-((6-(2′-chloro-3′-(5-((3-hydroxypyrrolidin-1-yl)methyl)picolinamido)-2-methylbiphenyl-3-ylcarbamoyl)pyridin-3-yl)methyl)azetidine-3-carboxylic Acid] it is at most 10 nM. The figure for `Cc1c(NC(=O)c2ccc(CN3CCCC[C@H]3C(=O)O)cn2)cccc1-c1cccc(NC(=O)c2ccc(CN3CCCC[C@H]3C(=O)O)cn2)c1Cl` [Example 2, (2S,2'S)-1,1′-(6,6′-(2-chloro-2′-methylbiphenyl-3,3′-diyl)bis(azanediyl)bis(oxomethylene)bis(pyridine-6,3-diyl))bis(methylene)dipiperidine-2-carboxylic Acid] is at most 10 nM. To `Cc1c(NC(=O)c2ccc(CN3CCCC[C@H]3C(=O)O)cn2)cccc1-c1cccc(NC(=O)c2ccc(CNCCO)cn2)c1Cl` [Example 7, (S)-1-((6-(2′-chloro-3′-(5-((2-hydroxyethylamino)methyl)picolinamido)-2-methylbiphenyl-3-ylcarbamoyl)pyridin-3-yl)methyl)piperidine-2-carboxylic Acid] belongs at most 10 nM; to `Cc1c(NC(=O)c2ccc(CN3CCC(C(=O)O)CC3)cn2)cccc1-c1cccc(NC(=O)c2ccc(CN3CC[C@@H](O)C3)cn2)c1Cl` [Example 9, (R)-1-((6-(2′-chloro-3′-(5-((3-hydroxypyrrolidin-1-yl)methyl)picolinamido)-2-methylbiphenyl-3-ylcarbamoyl)pyridin-3-yl)methyl)piperidine-4-carboxylic Acid], at most 10 nM; to `Cc1c(NC(=O)c2ccc(CN3CCOC3=O)cn2)cccc1-c1cccc(NC(=O)c2ccc(CN3CC[C@@H](O)C3)cn2)c1Cl` [Example 6, (R)—N-(2-chloro-2′-methyl-3′-(5-((2-oxooxazolidin-3-yl)methyl)picolinamido)biphenyl-3-yl)-5-((3-hydroxypyrrolidin-1-yl)methyl)picolinamide], at most 10 nM. Take `O=C(Nc1cccc(-c2cccc(NC(=O)c3nc4c(s3)CNCC4)c2F)c1Cl)c1ccc(CN2CCCC[C@H]2C(=O)O)cn1` [Example 11, (S)-1-((6-((2-chloro-2′-fluoro-3′-(4,5,6,7-tetrahydrothiazolo[5,4-c]pyridine-2-carboxamido)-[1,1′-biphenyl]-3-yl)carbamoyl)pyridin-3-yl)methyl)piperidine-2-carboxylic Acid]: the IC50 is at most 10 nM.

On to `Cc1cc(C(=O)Nc2cccc(-c3cccc(NC(=O)c4ccc(CN5CCCC5)cn4)c3Cl)c2C)ncc1CN1CCCC[C@H]1C(=O)O` [Example 12, (S)-1-((6-((2′-chloro-2-methyl-3′-(5-(pyrrolidin-1-ylmethyl)picolinamido)-[1,1′-biphenyl]-3-yl)carbamoyl)-4-methylpyridin-3-yl)methyl)piperidine-2-carboxylic acid], for which the IC50 was at most 10 nM.
